Read-outs that look alike come from different tables or passages of the source. Marks after values point to notes of the source that are not given here. Values belong to the compound of their own block, whether it stands above or below them.
Experiments:
[1] = target: T1, motor domain of human KSP (Eg 5, KNSL1) (Homo sapiens, UniProt P52732); assay: Assay for determining KSP activity (microtubule/KSP ATPase, Biomol Green); format: biochemical; settings: read-out: In vitro activity (IC-50 - nm)
T1 construct: KSP motor protein (i.e., the KSP motor domain); made in house
T1 sequence (P52732 18-359 limits assumed): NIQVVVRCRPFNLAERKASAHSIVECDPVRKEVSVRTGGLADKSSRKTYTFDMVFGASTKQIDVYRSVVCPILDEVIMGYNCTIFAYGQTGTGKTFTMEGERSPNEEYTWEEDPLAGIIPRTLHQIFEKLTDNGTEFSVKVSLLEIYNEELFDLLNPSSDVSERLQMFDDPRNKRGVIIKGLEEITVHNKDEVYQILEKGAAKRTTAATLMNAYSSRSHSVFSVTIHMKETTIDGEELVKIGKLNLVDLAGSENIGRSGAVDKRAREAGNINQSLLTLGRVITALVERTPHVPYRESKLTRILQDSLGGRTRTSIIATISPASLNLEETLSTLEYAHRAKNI
Experimental: Purified microtubules obtained from bovine brain were purchased from Cytoskeleton Inc. (Denver, Colo., USA). The motor domain of human KSP (Eg 5, KNSL1) was cloned, expressed, and purified to greater than 95% homogeneity. Biomol Green™ was purchased from Affinity Research Products Ltd. (Matford Court, Exeter, Devon, United Kingdom). Microtubules and KSP motor protein (i.e., the KSP motor domain) were diluted in assay buffer (20 mM Tris-HCl (pH 7.5), 1 mM MgCl2, 10 mM DTT and 0.25 mg/mL BSA) to a final concentration of 35 μg/mL microtubules and 45 nM KSP. The microtubule/KSP mixture was then pre-incubated at 37° C. for 10 min to promote the binding of KSP to microtubules.
To each well of the testing plate (384-well plate) containing 1.25 μL of inhibitor or test compound in DMSO (or DMSO only, in the case of controls) were added 25 μL of ATP solution (ATP diluted to a concentration of 300 μM in assay buffer) and 25 μL of the above-described microtubule/KSP solution. The plates were incubated at RT for 1 hour. Following incubation, 65 μL of Biomol Green™ (a malachite green-based dye that detects the release of inorganic phosphate) was added to each well. The plates were incubated for an additional 5-10 minutes then the absorbance at 630 nm was determined using a Victor II plate reader. The amount of absorbance at 630 nm corresponded to the amount of KSP activity in the samples. The IC50 of each inhibitor or test compound was then determined based on the decrease in absorbance at 630 nm at each concentration, via nonlinear regression using either XLFit for Excel or Prism data analysis software by GraphPad Software Inc.

[2] = In vivo pharmacokinetic parameters (clearance, half-life, AUC); settings: for clearance: read-out: In vivo Clearance rate
[3] = system: KB8.5 tumor xenograft; assay: KB8.5 tumor xenograft model (P-gp expressing), tumor response; format: in vivo, mouse; settings: for ΔT/ΔC, Day 11 (%): q4d × 3
Experimental: Cells were cultured for fewer than 10 passages prior to use. […] All data were expressed as mean and SEM. Between-groups comparisons for final tumor measurements were performed using the one-way ANOVA pair-wise analysis. Significance was determined using Kruskal-Wallis one-way ANOVA on Ranks, followed by appropriate post-hoc test (Dunn's Method or Tukey Test) for multiple pair-wise comparisons. Statistical analysis was carried out using SigmaStat (Systat Software Inc., San Jose, Calif.).

[4] = for Survival (alive/total) / % Max. Δ body weight, (Day): q4d × 3
Experimental: Experiments were performed using outbred athymic nu/nu mice (Charles River Laboratories) approximately 6-8 weeks old. Upon arrival, animals received a subcutaneous microchip implant (AVID, Folsom, La.) in the subscapular region for identification of individuals. Animals were allowed to acclimatize for 1 week before any experimental procedures began.
Compound IIa, compound IIc, compound IIa (shown below), and SB-715992 were formulated in a Captisol®-based formulation. Doses were administered intravenously (i.v.) and adjusted to each animal's body weight. Formulations were made once at the beginning of study and stored at room temperature. Clinical grade paclitaxel was purchased pre-mixed in a cremophor-based vehicle (Mayne Pharma, now Hospira, Lake Forest, Ill., catalog #NDC-6170334209) and diluted in sterile saline to provide a dose volume of 16 mL/kg for a 30 mg/kg dose administered intraperitoneally (i.p.)
For the efficacy studies, mice were enrolled with a mean tumor volume of approximately 300 mm^3. Tumor xenografts were measured in two dimensions (L and W) with digital calipers twice weekly from the start of dosing on Day 0. Tumor volume was calculated as (L×W^2)/2. Body weights were measured twice weekly and clinical observations were recorded daily. Tumor volume and body weights were captured and stored by StudyDirector software (StudyLog, South San Francisco, Calif.).

[5] = system: HCT-15; assay: CellTiter-Glo proliferation, 72 hours; format: cell-based; settings: Homo sapiens; Colon, HCT-15, 72 hours
Source text: (§1) Cell lines used were as follows: HCT-116 (National Cancer Institute's DCTF Tumor Repository, catalog #NCI-502568, Rockville, Md.), HCT-15 (National Cancer Institute's DCTF Tumor Repository, catalog#NCI-502711, Rockville, Md. available from American Type Tissue Collection, catalog #CLL-225), KB-3-1 (available from DSMZ, Deutsche Sammlung von Mikroorganismen und Zellkulturen GmbH (German Collection of Microorganisms and Cell Cultures—catalog number ACC 158), KB-V1 (available from DSMZ—catalog number ACC 149), AGS (available from American Type Culture Collection, Manassas Va., catalog number CRL-1739™), N87 (available from American Type Culture Collection, Manassas Va., catalog number CRL-5822), Hel92.1.7 (available from American Type Culture Collection, Manassas Va., catalog number TIB 180), K562 (available from American Type Culture Collection, Manassas Va., catalog number CRL-243™), MV4; 11 (American Tissue Culture Collection, Manassas Va., catalog number CRL-9591) and U937 (available from American Type Culture Collection, Manassas Va., catalog number CRL-1593.2).
(§2) Cells were plated in 96-well plates at densities of about 500 cells per well of a 96-well plate and allowed to grow for 24 hours. The cells were then treated with various concentrations of compounds for 72 hours. Then, 100 μl of CellTiter-Glo® reagent was added (Promega Corporation). CellTiter-Glo® is used in a homogeneous method of determining the number of viable cells using the single CellTiter-Glo® reagent to detect ATP (U.S. Pat. Nos. 6,602,677 and 7,241,584) (see Promega product catalog #G7570). Following the addition of the CellTiter-Glo® reagent, the cells were incubated in the dark for 30 minutes. The amount of luminescence was determined for each well using a Wallac Trilux plate reader, which correlates with the number of cells per well. The number of viable cells in the wells that receive only DMSO (0.5%) served as an indication of 0% inhibition, while wells without cells served as 100% inhibition of cell growth. […] This broad activity is consistent with a compound that is a mitotic inhibitor.

[6] = system: KB3.1; assay: CellTiter-Glo proliferation, 72 hours; format: cell-based; settings: Homo sapiens, KB 3-1; Epidermoid, KB3.1, 72 hours
Source text: as §1, §2

[7] = system: KB8.5; assay: CellTiter-Glo proliferation, 72 hours; format: cell-based; settings: Homo sapiens; Epidermoid, KB8.5, 72 hours

Compound: C[C@H](O)C(=O)N(CC[C@H](N)CF)[C@@H](c1nc(-c2cc(F)ccc2F)cn1Cc1ccccc1)C(C)(C)C [Compound IIc]
- IC50 [1]: 900 pM
- AUC [2]: 1700 ng·h/mL
- half-life [2]: 1.83 h
- clearance [2]: 47 mL/min/kg
- percent ΔT/ΔC ([3]; 1.25 mg/kg, q4d×3, day 11): 39%
- ΔT/ΔC, Day 11 (%) ([3]; Table 14 study, 1.25 mg/kg, i.v., KB8.5 xenograft, female nu/nu mice, p < 0.05 versus vehicle): 39* %
- body weight ([4]; 2.5 mg/kg treated group): significant weight loss
- Survival (alive/total) ([4]; Table 14 study, 1.25 mg/kg, i.v.): 9/9
- % Max. Δ body weight, (Day) ([4]; Table 14 study, 1.25 mg/kg, i.v., D11): −5 (D11) %
- % Max. Δ body weight, (Day) ([4]; Table 14 study, 2.5 mg/kg, i.v., D8): −10 (D8) %
- Survival (alive/total) ([4]; Table 14 study, 2.5 mg/kg, i.v., due to 4/9 mice having 15% weight loss or more): All down on Day 8

Compound: COCC(=O)N(CC[C@H](N)CF)[C@@H](c1nc(-c2cc(F)ccc2F)cn1Cc1ccccc1)C(C)(C)C [Compound Ia]
- IC50 [1]: 600 pM
- GI50 [5]: 300 pM
- GI50 [6]: 400 pM
- GI50 [7]: 400 pM
- AUC [2]: 2670 ng·h/mL
- half-life [2]: 1.95 h
- clearance [2]: 29 mL/min/kg
- efficacy in the KB8.5 tumor xenograft model ([3]; 5 mg/kg, q4d×3): not efficacious
- ΔT/ΔC, Day 11 (%) ([3]; Table 15 study, 1.25 mg/kg, i.v., not statistically different from vehicle): 84%
- ΔT/ΔC, Day 11 (%) ([3]; Table 15 study, 2.5 mg/kg, i.v., not statistically different from vehicle): 61%
- ΔT/ΔC, Day 11 (%) ([3]; Table 15 study, 5 mg/kg, iv., not statistically different from vehicle): 66%
- Survival (alive/total) ([4]; Table 15 study, 1.25 mg/kg, i.v.): 10/10
- % Max. Δ body weight, (Day) ([4]; Table 15 study, 1.25 mg/kg, i.v., D11): 1 (D11) %
- Survival (alive/total) ([4]; Table 15 study, 2.5 mg/kg, i.v.): 10/10
- % Max. Δ body weight, (Day) ([4]; Table 15 study, 2.5 mg/kg, i.v., D4): −0.4 (D4) %
- Survival (alive/total) ([4]; Table 15 study, 5 mg/kg, iv.): 10/10
- % Max. Δ body weight, (Day) ([4]; Table 15 study, 5 mg/kg, iv., D4): −2 (D4) %

- IC50 [1]: 22000 pM
- AUC [2]: 867 ng·h/mL
- half-life [2]: 1.5 h
- clearance [2]: 94 mL/min/kg
Compound: CC(=O)N(CC[C@H](N)CF)[C@@H](c1nc(-c2cc(F)ccc2F)cn1Cc1ccccc1)C(C)(C)C [Compound Ib]

From patent publication US8252832B2, “Kinesin inhibitors as cancer therapeutics” (Novartis AG, priority 2007, dated 2012)
